ChEMBL document CHEMBL1201862, “PubChem BioAssay data set” (2004)
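Method: 48-hour compound exposure of cells in 96-well plates, five concentrations, linear interpolation of endpoints. Here, GI50 denotes the concentration required for 50% inhibition of growth.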 Calls of active or inactive are those of the source. Cut-off read from the data, not from the text of the source: active = GI50 up to about 1.1 µM and inactive = higher.

Experiments:
Assay in all cases: inhibition of tumour cell growth, NCI panel, 48 h
SNB-19 = tested on: SNB-19
EKVX = tested on: EKVX
MDA-MB-435 = tested on: MDA-MB-435
HT-29 = tested on: HT-29
SNB-75 = tested on: SNB-75
NCI-H23 = tested on: NCI-H23
NCI-H460 = tested on: NCI-H460
M14 = tested on: M14
UO-31 = tested on: UO-31
DU-145 = tested on: DU-145
OVCAR-8 = tested on: OVCAR-8
HCC 2998 = tested on: HCC 2998
MCF7 = tested on: MCF7
SR = tested on: SR
OVCAR-3 = tested on: OVCAR-3
RPMI-8226 = tested on: RPMI-8226
OVCAR-5 = tested on: OVCAR-5
NCI-H226 = tested on: NCI-H226
SK-MEL-28 = tested on: SK-MEL-28
SN12C = tested on: SN12C

Measured: GI50

Oc1c(Cl)c(Cl)c(Cl)c(Cl)c1Cl [PENTACHLOROPHENOL]
inactive: SNB-19 30.3 µM | EKVX 23.4 µM | MDA-MB-435 20.7 µM | HT-29 21.2 µM | SNB-75 22.9 µM | NCI-H23 21.8 µM | NCI-H460 > 100 µM | M14 20.9 µM | UO-31 17 µM | DU-145 21.4 µM | OVCAR-8 20.8 µM | HCC 2998 > 100 µM | MCF7 24.9 µM | SR 26.1 µM | OVCAR-3 18.7 µM | RPMI-8226 22.1 µM | OVCAR-5 18.4 µM | NCI-H226 28.4 µM | SK-MEL-28 24 µM | SN12C 19.1 µM
